Tested on: ara-C metabolic pathway genes
Assay: Association of ara-C pathway SNP genotypes with MRD1, EFS and OS in AML02 (logistic regression and Cox models; also within LDAC and HDAC arms)
Design: species or system human
Settings: within arm of AML02
Excerpt: Genomic DNA from patients enrolled in the multi-site St. Jude AML02 trial was genotyped for 155 SNPs in 16 genes of relevance to ara-C pharmacology using sequenom iPlex platform that uses MALDI-TOF based chemistry at University of Minnesota, Biomedical Genomics Center. SNPs were selected based on previously reported studies. For SNPs lacking literature on genetic variation, SNPs were selected to capture LD blocks (European and African ancestry) on a gene. Of 155 SNPs, 1 SNP was excluded due to low call rate (<90%), 47 SNPs were excluded due to minimum allele frequency of less than 5%, 11 SNPs were excluded due to high LD (r^2>0.9) with other SNPs; two SNPs were excluded because of deviation from Hardy-Weinberg equilibrium. Genotype for the COG-AAML0531 cohort for the selected SNPs was obtained using sequenom platform or TaqMan genotyping assays, and for a few SNPs was extracted from the data available on Illumina 2.5 Omni array. Genotype calls from multiple platforms were confirmed across multiple samples randomly collected from the cohort.
SNP genotype groups in three different modes of inheritance (additive, dominant, and recessive) were tested for association with MRD1 using logistic regression models. Odds ratio (OR) and 95% confidence interval (CI) were calculated for each test. SNPs with association P-value<0.05 were considered significant. Cox-proportional hazard models were used to evaluate association of genotype groups with EFS or OS. Hazard ratio (HR) and 95% CI were calculated for each test. p-value<0.05 was considered statistically significant. Given initial risk group assignments are well-established prognostic factors associated with outcome, outcome association analysis of SNPs with and without adjusting for risk group was also performed to identify SNPs that are associated with outcome independent of risk group.
SNPs with p<0.15 in risk-adjusted univariate evaluation with clinical endpoints (MRD1, EFS, and OS) were tested for all possible combinations with a maximum of three SNPs per model in multivariable logistic regression models for association with MRD1 and Cox-proportional hazard models for association with EFS and OS. Analysis for up to 3 SNP combinations was restricted due to computational challenges as increasing the maximum number of SNPs per model drastically increases the number of models as 1000 permutations were run for each model. Models were ordered according to their Bayesian Information Criterion (BIC) and weight in favor of each model. One thousand permutation tests were performed for each model to determine statistical significance. The six unique SNPs from the most significant models for EFS and MRD1 were included in the development of the ACS10 score as described in the results section.
The multicenter AML02 clinical trial randomly assigned subjects to receive low dose ara-C (LDAC: 100 mg/m^2; n=91 patients) or high dose ara-C(HDAC: 3 g/m^2; n=75 patients) in combination with daunorubicin and etoposide as the first course of chemotherapy as described above in patient cohort section. Thus, the association of SNPs with outcome within each arm separately was also explored (Table 5).

[1] = rs4917384 (NT5C2, WT C, VAR T), MOI D
[2] = rs4980345 (SLC28A1, WT G, VAR A), MOI A
[3] = rs6552622 (DCTD, WT C, VAR G), MOI D
[4] = rs6742272 (RRM2, WT C, VAR G), MOI A
[5] = rs6834938 (DCTD, WT C, VAR T), MOI R
[6] = rs6946062 (NT5C3, WT T, VAR C), MOI D
[7] = rs7533657 (CTPS1, WT C, VAR T), MOI R
[8] = rs7543016 (CMPK1, WT C, VAR G), MOI R
[9] = rs7776847 (NT5C3, WT G, VAR A), MOI A
[10] = rs7874528 (SLC28A3, WT G, VAR T), MOI D
[11] = rs10252880 (NT5C3, WT G, VAR C), MOI A
[12] = rs10767827 (RRM1, WT G, VAR T), MOI D
[13] = rs10786736 (NT5C2, WT G, VAR C), MOI D
[14] = rs10916819 (CDA, WT A, VAR G), MOI D
[15] = rs11140525 (SLC28A3, WT G, VAR A), MOI A
[16] = rs11191558 (NT5C2, WT G, VAR A), MOI D
[17] = rs11737887 (DCTD, WT T, VAR C), MOI A
[18] = rs12554292 (SLC28A3, WT C, VAR T), MOI D
[19] = rs12806698 (RRM1, WT C, VAR A), MOI D
[20] = rs17103168 (CMPK1, WT A, VAR G), MOI D

Compound: Nc1ccn([C@@H]2O[C@H](CO)[C@@H](O)[C@@H]2O)c(=O)n1 [HDAC, cytarabine]
- EFS HR (95% CI) [1]: 0.74 (0.51-1.08)
- MRD1 OR (95% CI) [1]: 0.73 (0.44-1.2)
- OS HR (95% CI) [1]: 0.61 (0.38-0.98)
- EFS HR (95% CI) [2]: 0.94 (0.47-1.87)
- MRD1 OR (95% CI) [2]: 0.55 (0.19-1.62)
- OS HR (95% CI) [2]: 1.3 (0.64-2.64)
- EFS HR (95% CI) [3]: 1.71 (1.15-2.53)
- MRD1 OR (95% CI) [3]: 1.06 (0.56-1.99)
- OS HR (95% CI) [3]: 1.84 (1.19-2.85)
- EFS HR (95% CI) [4]: 1.09 (0.68-1.76)
- MRD1 OR (95% CI) [4]: 0.86 (0.44-1.68)
- OS HR (95% CI) [4]: 1.09 (0.62-1.92)
- EFS HR (95% CI) [5]: 0.7 (0.34-1.44)
- MRD1 OR (95% CI) [5]: 1.08 (0.49-2.38)
- OS HR (95% CI) [5]: 0.86 (0.42-1.79)
- EFS HR (95% CI) [6]: 1.13 (0.78-1.63)
- MRD1 OR (95% CI) [6]: 0.96 (0.59-1.56)
- OS HR (95% CI) [6]: 1.47 (0.92-2.35)
- EFS HR (95% CI) [7]: 1.76 (1.14-2.7)
- MRD1 OR (95% CI) [7]: 1.31 (0.67-2.57)
- OS HR (95% CI) [7]: 1.97 (1.22-3.18)
- EFS HR (95% CI) [8]: 0.69 (0.38-1.25)
- MRD1 OR (95% CI) [8]: 1.29 (0.69-2.42)
- OS HR (95% CI) [8]: 0.65 (0.32-1.35)
- EFS HR (95% CI) [9]: 0.83 (0.46-1.5)
- MRD1 OR (95% CI) [9]: 1.23 (0.57-2.65)
- OS HR (95% CI) [9]: 0.71 (0.34-1.47)
- EFS HR (95% CI) [10]: 1.24 (0.85-1.81)
- MRD1 OR (95% CI) [10]: 0.91 (0.52-1.61)
- OS HR (95% CI) [10]: 1.41 (0.91-2.17)
- EFS HR (95% CI) [11]: 0.99 (0.62-1.57)
- MRD1 OR (95% CI) [11]: 1.18 (0.62-2.27)
- OS HR (95% CI) [11]: 0.74 (0.42-1.32)
- EFS HR (95% CI) [12]: 1.03 (0.71-1.49)
- MRD1 OR (95% CI) [12]: 0.55 (0.31-0.97)
- OS HR (95% CI) [12]: 1.04 (0.68-1.61)
- EFS HR (95% CI) [13]: 0.92 (0.6-1.4)
- MRD1 OR (95% CI) [13]: 0.9 (0.51-1.59)
- OS HR (95% CI) [13]: 0.92 (0.56-1.52)
- EFS HR (95% CI) [14]: 1.08 (0.75-1.56)
- MRD1 OR (95% CI) [14]: 1.87 (1.09-3.21)
- OS HR (95% CI) [14]: 1.33 (0.83-2.12)
- EFS HR (95% CI) [15]: 0.73 (0.44-1.21)
- MRD1 OR (95% CI) [15]: 0.44 (0.21-0.94)
- OS HR (95% CI) [15]: 0.87 (0.49-1.56)
- EFS HR (95% CI) [16]: 0.87 (0.56-1.37)
- MRD1 OR (95% CI) [16]: 0.93 (0.53-1.66)
- OS HR (95% CI) [16]: 0.84 (0.48-1.44)
- EFS HR (95% CI) [17]: 0.96 (0.49-1.89)
- MRD1 OR (95% CI) [17]: 2.74 (1.06-7.06)
- OS HR (95% CI) [17]: 0.95 (0.43-2.12)
- EFS HR (95% CI) [18]: 1.15 (0.75-1.76)
- MRD1 OR (95% CI) [18]: 1.92 (1.04-3.56)
- OS HR (95% CI) [18]: 1.4 (0.87-2.24)
- EFS HR (95% CI) [19]: 0.64 (0.43-0.96)
- MRD1 OR (95% CI) [19]: 0.89 (0.54-1.45)
- OS HR (95% CI) [19]: 0.62 (0.37-1.02)
- EFS HR (95% CI) [20]: 1.05 (0.73-1.51)
- MRD1 OR (95% CI) [20]: 0.62 (0.37-1.04)
- OS HR (95% CI) [20]: 0.9 (0.58-1.41)

— patent publication US20240344145A1, “PHARMACOGENOMICS SCORE TO MAKE DECISIONS ON THERAPY AUGMENTATION IN AML” (University of Florida Research Foundation, Incorporated, priority 2021, published 2024)
